Where only a bound is given, the exact number is not on record here.

The record followed here is BindingDB's records for doi:10.1021/jm00023a009 (University of Paris, 1995).

This assay in a line: In vitro inhibition of EGF-stimulated DNA synthesis of ER 22 cells by following the incorporation of methyl-[3H]thymidine.
Regarding `COCOc1cc(-c2ccccc2)ccc1-c1ccc(C(=O)OC)cc1`, the 50% inhibitory concentration (IC50) (commonly the point on the concentration scale where inhibition reaches its midpoint) is over 5 µM.

`CC(COC(=O)c1ccc(-c2cccc(-c3ccccc3)c2O)cc1)CC(C)(C)C` (stereo not given) came in with a concentration for half-maximal inhibition (IC50) of over 10 µM.

In turn, `COCOc1cc(-c2ccccc2)ccc1-c1ccc(C(=O)NCc2ccccc2)cc1` [2'-Methoxymethoxy-[1,1';4',1'']terphenyl-4-carboxylic acid benzylamide] showed an IC50 of 1.1 µM.

In the case of `COCOc1cc(C(C)(C)C)ccc1-c1ccc(C(=O)OC)cc1` [4'-tert-Butyl-2'-methoxymethoxy-biphenyl-4-carboxylic acid methyl ester], the concentration for half-maximal inhibition (IC50) was determined as 10 µM.

Regarding `COC(=O)c1ccc(-c2ccc(C(C)(C)C)cc2O)cc1`, the IC50 is over 5 µM.

`CC(COC(=O)c1ccc(-c2cc(O)cc(C(C)(C)C)c2)cc1)CC(C)(C)C` (stereo not given) displayed a 50% inhibitory concentration (IC50) of over 5 µM.

Take `CC(C)(C)c1cc(O)cc(-c2ccc(C(=O)NCc3ccccc3)cc2)c1` [3'-tert-Butyl-5'-hydroxy-biphenyl-4-carboxylic acid benzylamide]: the half-inhibitory concentration (IC50) came out at 5.4 µM.

As to `O=C(NCc1ccccc1)c1ccc(-c2ccc(-c3ccccc3)cc2O)cc1` [2'-Hydroxy-[1,1';4',1'']terphenyl-4-carboxylic acid benzylamide], 1.4 µM corresponded to half-maximal inhibition (IC50).

For the compound `COCOc1c(-c2ccccc2)cccc1-c1ccc(C(=O)OCC(C)CC(C)(C)C)cc1` (stereo not given), the 50% inhibitory concentration (IC50) is over 10 µM.

`O=C(O)c1ccc(-c2cc(O)cc(-c3ccccc3)c2)cc1` had an IC50 of 10 µM.

For the compound `CC(COC(=O)c1ccc(-c2cc(O)cc(-c3ccccc3)c2)cc1)CC(C)(C)C` (stereo not given), the 50% inhibitory concentration (IC50) is over 5 µM.

`CC(C)(C)c1cc(O)cc(-c2ccc(C(=O)O)cc2)c1` [3'-tert-Butyl-5'-hydroxy-biphenyl-4-carboxylic acid] showed an IC50 of over 20 µM.

Regarding `COC(=O)c1ccc(-c2cccc(-c3ccccc3)c2O)cc1` [2'-Hydroxy-[1,1';3',1'']terphenyl-4-carboxylic acid methyl ester], the IC50 is over 5 µM.

Regarding `COCOc1cc(-c2ccccc2)ccc1-c1ccc(C(=O)O)cc1`, the IC50 turned out to be 10 µM.

For `O=C(NCc1ccccc1)c1ccc(-c2cc(O)cc(-c3ccccc3)c2)cc1`, 8 µM corresponded to half-maximal inhibition (IC50).
